Laboratory results taken from US20230272012A1, “PEPTIDES AND METHODS OF USE” (REALTA LIFE SCIENCES, INC., priority 2020, published 2023).
Bridge positions count the residues as written; N and C are the ends. Square brackets hold non-standard residues; d marks the D form. Ends that are not written are not given here. Peptide text beside a SMILES is read from it. R8 = C=CCCCCCC[C@@](C)(N)C(=O)O; S5 = C=CCCC[C@](C)(N)C(=O)O; Sar = CNCC(=O)O

How the values were obtained:
[1] = tested on: antibody-initiated complement activation (human O sera and AB red blood cells); test: ABO incompatibility hemolytic assay of complement activity (CH50-type); format: cell-based; settings: peptide 0.8 mg/ml (~0.5 mM)
Protocol: (§1) FIG. 1A-1B show PIC1 peptides' inhibition of complement activation in an ABO incompatibility assay. […] Inhibition of ABO incompatibility hemolysis in a CH50-type assay. Peptides are at a final concentration of 0.5 mM. Values are represented as a percent of the positive control, which consists of human O sera and AB red blood cells in GVBS^++ buffer. Data are the means of n=3 independent experiments±SEM.
(§2) For hemolytic complement assays, human red blood cells (RBCs) from type AB donors were purified, washed, and standardized to 1.0×10^9 cells/ml, as previously described. Human sera from type O donors at a 15% final concentration was combined with 0.5 mM of the peptides and the volume was brought up to 0.2 ml with GVBS^++ and 5.0×10^7 RBCs. The samples were incubated for 1 hour at 37° C. and then spun at 3,000 rpm for 5 minutes and the supernatant was collected and read at 412 nm. Values are represented as a percent of the positive control, which consists of human O sera and AB red blood cells in GVBS^++ buffer.
(§3) To assess the extent to which the peptide variants inhibit antibody-initiated complement activation, an ABO incompatibility ex vivo assay was utilized in which purified erythrocytes from a ‘type AB+’ donor are incubated with sera from a ‘type O’ subject containing anti-A and anti-B antibodies. Peptides were tested at a concentration of 0.8 mg/ml (˜0.5 mM). […] D-amino acid variants PA-0127 and PA-0133 decreased ABO hemolysis by 20% (P value=0.083) and 25% (P value=0.076), respectively. […]

MPO = molecular target: T1, MPO (Homo sapiens, UniProt P05164); test: MPO activity assay (TMB oxidation); format: biochemical; settings: half-maximal values from dose-response curves
T1 construct: purchased Lee BioSolutions (Maryland Heights, Mo.)
T1 sequence (P05164 49-745): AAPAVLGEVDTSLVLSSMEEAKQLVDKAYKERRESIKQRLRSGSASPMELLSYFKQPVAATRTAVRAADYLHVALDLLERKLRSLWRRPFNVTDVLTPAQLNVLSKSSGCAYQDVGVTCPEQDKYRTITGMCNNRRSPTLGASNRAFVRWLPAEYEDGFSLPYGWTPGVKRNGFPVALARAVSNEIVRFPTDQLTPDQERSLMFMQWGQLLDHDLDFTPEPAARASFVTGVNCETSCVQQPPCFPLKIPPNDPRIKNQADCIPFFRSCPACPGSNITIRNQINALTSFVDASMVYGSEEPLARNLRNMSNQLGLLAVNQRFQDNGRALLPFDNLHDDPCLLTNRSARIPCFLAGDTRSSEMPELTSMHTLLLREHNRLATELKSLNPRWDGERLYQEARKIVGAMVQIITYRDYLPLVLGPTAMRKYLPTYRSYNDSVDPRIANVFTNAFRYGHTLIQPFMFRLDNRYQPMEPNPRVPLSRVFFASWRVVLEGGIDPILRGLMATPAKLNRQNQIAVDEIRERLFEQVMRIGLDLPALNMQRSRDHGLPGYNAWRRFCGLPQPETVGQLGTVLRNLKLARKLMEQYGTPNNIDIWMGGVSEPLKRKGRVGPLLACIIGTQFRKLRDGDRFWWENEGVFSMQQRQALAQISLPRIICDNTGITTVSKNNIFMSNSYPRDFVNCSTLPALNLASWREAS
Protocol: The MPO activity assay was performed as previously described. Briefly, peptides were diluted to 12 mg/ml and serially titrated in a 96 well plate at a volume of 0.02 ml. MPO was diluted to 20 μg/ml and 0.02 ml was added to the titrated peptides. TMB (3,30,5,50-tetramethylbenzidine) (0.1 ml) was added to each well for 2 minutes, followed by 0.1 ml of 2.5 N H2SO4 for another 2 minutes, and then read on a 96 well plate reader (BioTek) at 450 nm.
The inventors also assessed the ability of RLS-0127* and RLS-0133* to inhibit MPO activity as determined by inhibition of oxidation of TMB in a plate-based assay. […] Additionally, the inventors assessed the ability of RLS-0127* and RLS-0133* to bind C1q in a plate-based assay in which C1q is coated on the plate and increasing amounts of the peptides are added, followed by primary antibody to the peptides and secondary antibody conjugated to HRP. The plate was then incubated with TMB to give a […] signal that is detected at a wavelength of 450 nm in a plate reader.

PD-1/PD-L1 interaction = molecular target: T2, PD-1/PD-L1 interaction (Homo sapiens, UniProt Q15116+Q9NZQ7); test: PD-1/PD-L1 Blockade Bioassay (Promega); format: cell-based; settings: increasing peptide concentrations
T2 construct: host or cells: PD-1 effector cells; PD-L1 aAPC/CHO-K1 cells
Protocol: PD-1 effector cells were incubated with PD1-L1 aAPC cells in the absence or presence of increasing concentrations of anti-PD-1 antibody (positive control) and select PIC1 peptides. Luminescence was detected in luminometer plate reader.
To assess if PIC1 peptides could block PD-1 inhibitory activity in a cell-based assay, select peptides were screened in the PD-1/PD-L1 Blockade Bioassay (Promega). The PD-1/PD-L1 Blockade Bioassay is a biologically relevant MOA-based assay that can be used to measure the potency and stability of antibodies and other biologics designed to block the PD-1/PD-L1 interaction. This bioluminescent cell-based assay is used to measure the potency and stability of molecules targeting PD-1 and consists of two genetically engineered cell lines: aAPC/CHO-K1 Cells are CHO-K1 cells with an engineered cell surface protein designed to activate cognate TCRs in an antigen-independent manner. When the two cell types are co-cultured, the PD-1/PD-L1 interaction inhibits TCR signaling and NFAT-mediated luciferase activity. Addition of an inhibitory molecule that blocks either PD-1 or PD-L1 releases the inhibitory signal and results in TCR signaling and NFAT-mediated luciferase activity.

[2] = ABO incompatibility hemolytic assay of complement activity (CH50-type); format: cell-based, human; settings: human; peptide 0.8 mg/ml (~0.5 mM); read-out: decrease of ABO hemolysis compared to PA-C9Sar
Protocol: as §1, §2, §3

[3] = tested on: purified human Pan T-cells; test: T-cell exhaustion protocol (Dynabeads re-stimulation); format: cell-based; settings: peptides 2 mg/ml at each stimulation; supernatant ELISA
Protocol: Purified human pan-T-cells were subject to stimulation with Dynabeads every 48 hours over the period of 8 days with cells also receiving PIC1 peptides (2 mg/ml) at each stimulation. Cells not receiving Dynabeads were run in parallel to assess background levels of Caspase 3/7 signal. At the eighth day, cells were harvested and the levels of Caspase 3/7 determined by ELISA.
Purified human pan-T-cells were subject to stimulation with Dynabeads every 48 hours over the period of 8 days with cells also receiving PIC1 peptides (2 mg/ml) at each stimulation. Cell supernatants were collected at each stimulation and levels of IL-2 and IFN-gamma assayed by ELISA.
T-cell exhaustion is a form of T-cell dysfunction that occurs in cancer. It is defined by poor effector function, reduction in cytokine release (e.g., IL-2, TNF-alpha, IFN-gamma), sustained expression of inhibitory receptors (e.g., PD-1, LAG-3, CD244, CD160) with the progressive loss of effector function due to overstimulation. Exhaustion prevents optimal control of tumor growth. Exhausted T cells are prevalent in the tumor microenvironment (TME) and can lead to T-cell apoptosis. T-cell exhaustion is reversible, and pharmaceutical inhibition of T-cell exhaustion has been considered a promising strategy by many cancer researchers. To ascertain if PIC1 peptides could reverse T-cell exhaustion and increase T cell viability and effector function, a T-cell exhaustion protocol was developed. To induce T-cell exhaustion, purified human Pan T-cells were stimulated with T-Activator CD3/CD28 Dynabeads and cells are washed and re-stimulated every 48 hours. PIC1 peptides were added to the cells after each stimulation with Dynabeads. After three to four stimulations cells were harvested for readouts which consisted of assessing T-cell apoptosis by measuring Caspase 3/7 levels and production of cytokines IL-2 and IFN-gamma which is indicative of T-cell functionality. […] To further evaluate if PIC1 peptides could restore T-cell functionality in cells that have undergone the exhaustion protocol, the inventors next assessed production of cytokines IL-2 and IFN-gamma. Supernatants from the cells after each stimulation were collected and the cytokines measured by ELISA. […] The lower level of IFN-gamma signal compared to IL-2 was consistently seen in this assay.

T2 sequence (Q15116 25-288): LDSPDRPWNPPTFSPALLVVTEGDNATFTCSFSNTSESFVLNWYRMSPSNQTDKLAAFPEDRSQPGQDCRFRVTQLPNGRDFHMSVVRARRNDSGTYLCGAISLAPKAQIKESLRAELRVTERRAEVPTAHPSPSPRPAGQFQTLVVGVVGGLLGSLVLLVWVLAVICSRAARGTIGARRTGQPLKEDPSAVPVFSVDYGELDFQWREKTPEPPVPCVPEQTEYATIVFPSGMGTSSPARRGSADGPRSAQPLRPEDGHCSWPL
T2 sequence (Q9NZQ7 19-290): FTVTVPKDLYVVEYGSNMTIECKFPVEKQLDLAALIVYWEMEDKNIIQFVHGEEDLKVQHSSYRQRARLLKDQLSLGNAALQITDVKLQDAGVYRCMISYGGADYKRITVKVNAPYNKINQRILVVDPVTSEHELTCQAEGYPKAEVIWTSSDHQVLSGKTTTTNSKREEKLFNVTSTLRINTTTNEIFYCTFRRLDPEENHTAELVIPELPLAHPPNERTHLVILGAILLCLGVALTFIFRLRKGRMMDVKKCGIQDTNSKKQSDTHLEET

Compound	MPO inhibition compared with PA-C9Sar (MPO)	inhibition of PD-1/PD-L1 inhibitory signaling (luminescence) (PD-1/PD-L1 interaction)	further results
S5ALIS5EP(Sar)CCQERAA ([S5]ALI[S5]EP[Sar]CCQERAA; bridges not given here; also: S5 1-5 hydrocarbon staple: may or may not be stapled) [PA-0138]	–	–	inhibition of ABO incompatible hemolysis compared to PA-I8Sar [1]: lesser extent
IALILEPdI(Sar)CQERAA (IALILEPIXCQERAA; D-isoleucine, sarcosine; MOD_RES (8)..(8) D-amino acid; MOD_RES (9)..(9) Sarcosine) [PA-0163]	decreased MPO inhibition	–	–
dIALILEPI(Sar)CQERAA (IALILEPIXCQERAA; D-isoleucine, sarcosine; MOD_RES (1)..(1) D-amino acid; MOD_RES (9)..(9) Sarcosine) [PA-0156]	–	did not show PD-1/PD-L1 inhibitory activity	–
IAS5ILES5I(Sar)CQERAA (IA[S5]ILE[S5]I[Sar]CQERAA; staple 3-7) [PA-0153]	decreased MPO inhibition	–	–
IALIS5EP(Sar)S5CQERAA (IALI[S5]EP[Sar][S5]CQERAA; bridges not given here; also: S5 5-9 may or may not be stapled) [PA-0140]	–	–	inhibition of ABO incompatible hemolysis compared to PA-I8Sar [1]: lesser extent; MPO inhibition compared with PA-I8Sar (MPO): reduced inhibition of MPO activity
CC[C@H](C)[C@H](N)C(=O)N[C@@H](C)C(=O)N[C@@H](CC(C)C)C(=O)N[C@H](C(=O)N[C@@H](CC(C)C)C(=O)N[C@@H](CCC(=O)O)C(=O)N1CCC[C@H]1C(=O)N[C@H](C(=O)N(C)CC(=O)N[C@@H](CS)C(=O)N[C@@]1(C)CCCC=CCCC[C@@](C)(C(=O)O)NC(=O)[C@H](C)NC(=O)[C@H](CCCNC(=N)N)NC(=O)[C@H](CCC(=O)O)NC1=O)[C@@H](C)CC)[C@@H](C)CC [PA-0155] (H-IALILEPI[Sar]C[S5]ERA[S5]-OH; staple 11-15)	decreased MPO inhibition	did not show PD-1/PD-L1 inhibitory activity	decrease in ABO hemolysis compared to reference peptide at 1 h [2]: 64%; inhibition of complement in the hemolytic assay compared to PA-C9Sar [1]: significant increase in complement inhibitory activity
IALIR8EP(Sar)CCQS5RAA (IALI[R8]EP[Sar]CCQ[S5]RAA; bridges not given here; also: R8/S5 5-12 may or may not be stapled) [PA-0136]	–	–	inhibition of ABO incompatible hemolysis compared to PA-I8Sar [1]: same level as the parent molecule
IALIR8EPI(Sar)CQS5RAA (IALI[R8]EPI[Sar]CQ[S5]RAA; staple 5-12) [PA-0148]	decreased MPO inhibition	–	–
IALILEP(Sar)CS5QdERS5A (IALILEP[Sar]C[S5]Q[dE]R[S5]A; staple 10-14) [PA-0144]	–	did not show PD-1/PD-L1 inhibitory activity	–
IALILEP(Sar)CS5QERS5dA (IALILEP[Sar]C[S5]QER[S5][dA]; bridges not given here; also: S5 10-14 may or may not be stapled) [PA-0145]	–	–	increase in complement inhibition compared to PA-I8Sar [1]: ~10%
RLS-0142: PIC1 peptide screened in the bioassay; no sequence printed (IALILEP[Sar][dC][S5]QER[S5]A; staple 10-14)	–	did not show PD-1/PD-L1 inhibitory activity	–
IALILEPI(Sar)CQEdRAA (IALILEPIXCQERAA; D-arginine, sarcosine; MOD_RES (9)..(9) Sarcosine; MOD_RES (13)..(13) D-amino acid) [PA-0167]	–	–	inhibition of complement in the hemolytic assay compared to PA-C9Sar [1]: slightly less well
IALILEP(Sar)dCS5QERS5A (IALILEP[Sar][dC][S5]QER[S5]A; staple 10-14) [PA-0143]	–	did not show PD-1/PD-L1 inhibitory activity	–
IALILEdPI(Sar)CQERAA (IALILEPIXCQERAA; D-proline, sarcosine; MOD_RES (7)..(7) D-amino acid; MOD_RES (9)..(9) Sarcosine) [PA-0162]	–	did not show PD-1/PD-L1 inhibitory activity	inhibition of complement in the hemolytic assay compared to PA-C9Sar [1]: slightly less well; IL-2 signal at stimulation 2 [3]: showed an IL-2 signal at stimulation 2
S5ALIS5EPI(Sar)CQERAA ([S5]ALI[S5]EPI[Sar]CQERAA; staple 1-5) [PA-0151]	decreased MPO inhibition	–	–
